Results from ChEMBL document CHEMBL4507266, “Data for DCP probe BAY-784” (2021).

Columns and labels:
Mus musculus = organism: Mus musculus; experiment: Inhibition of Phorbol Ester at 10 µM in the Eurofins-Panlabs radioligand binding assay (Eurofins_assay_264500); design: ligand concentration 3 nM; details: Compound concentration 10.0 uM
Bacteria = experiment: Inhibition of Beta-Lactamase at 10 µM in the Eurofins-Panlabs enzyme assay (Eurofins_assay_126000); format: protein-complex assay; design: substrate with concentration; details: Compound concentration 10.0 uM
[1] = molecular target: 5-hydroxytryptamine receptor 6 (Homo sapiens) (UniProt P50406); experiment: Inhibition of Serotonin (5-Hydroxytryptamine) 5-HT6 at 10 µM in the Eurofins-Panlabs radioligand binding assay (Eurofins_assay_272200); details: Compound concentration 10.0 uM
[2] = molecular target: Sodium-dependent serotonin transporter (Homo sapiens) (UniProt P31645); details: Compound concentration 10.0 uM
Sodium-dependent serotonin transporter (Homo sapiens), sequence (P31645 whole entry, looked up): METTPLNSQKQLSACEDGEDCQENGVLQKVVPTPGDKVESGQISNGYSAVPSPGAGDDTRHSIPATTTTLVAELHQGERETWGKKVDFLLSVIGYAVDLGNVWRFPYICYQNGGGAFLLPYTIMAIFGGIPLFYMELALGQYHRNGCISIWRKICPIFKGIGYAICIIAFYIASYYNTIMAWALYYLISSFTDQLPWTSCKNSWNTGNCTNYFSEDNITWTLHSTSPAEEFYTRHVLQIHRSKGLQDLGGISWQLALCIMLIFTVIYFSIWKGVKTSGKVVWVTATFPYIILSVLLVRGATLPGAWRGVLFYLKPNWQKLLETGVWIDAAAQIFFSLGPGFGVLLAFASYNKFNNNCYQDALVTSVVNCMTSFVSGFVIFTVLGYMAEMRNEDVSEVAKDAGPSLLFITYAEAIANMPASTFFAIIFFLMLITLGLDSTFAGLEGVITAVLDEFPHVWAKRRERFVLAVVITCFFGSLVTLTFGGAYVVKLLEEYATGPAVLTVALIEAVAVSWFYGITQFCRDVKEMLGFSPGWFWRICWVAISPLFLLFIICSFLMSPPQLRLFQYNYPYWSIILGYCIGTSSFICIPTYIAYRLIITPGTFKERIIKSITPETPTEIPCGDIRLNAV

[3] = molecular target: Acetylcholinesterase (Homo sapiens) (UniProt P22303); details: Compound concentration 10.0 uM
[4] = molecular target: Insulin receptor (Homo sapiens) (UniProt P06213); details: Rattus norvegicus; Compound concentration 10.0 uM
Insulin receptor (Homo sapiens), sequence (P06213 28-758 limits assumed): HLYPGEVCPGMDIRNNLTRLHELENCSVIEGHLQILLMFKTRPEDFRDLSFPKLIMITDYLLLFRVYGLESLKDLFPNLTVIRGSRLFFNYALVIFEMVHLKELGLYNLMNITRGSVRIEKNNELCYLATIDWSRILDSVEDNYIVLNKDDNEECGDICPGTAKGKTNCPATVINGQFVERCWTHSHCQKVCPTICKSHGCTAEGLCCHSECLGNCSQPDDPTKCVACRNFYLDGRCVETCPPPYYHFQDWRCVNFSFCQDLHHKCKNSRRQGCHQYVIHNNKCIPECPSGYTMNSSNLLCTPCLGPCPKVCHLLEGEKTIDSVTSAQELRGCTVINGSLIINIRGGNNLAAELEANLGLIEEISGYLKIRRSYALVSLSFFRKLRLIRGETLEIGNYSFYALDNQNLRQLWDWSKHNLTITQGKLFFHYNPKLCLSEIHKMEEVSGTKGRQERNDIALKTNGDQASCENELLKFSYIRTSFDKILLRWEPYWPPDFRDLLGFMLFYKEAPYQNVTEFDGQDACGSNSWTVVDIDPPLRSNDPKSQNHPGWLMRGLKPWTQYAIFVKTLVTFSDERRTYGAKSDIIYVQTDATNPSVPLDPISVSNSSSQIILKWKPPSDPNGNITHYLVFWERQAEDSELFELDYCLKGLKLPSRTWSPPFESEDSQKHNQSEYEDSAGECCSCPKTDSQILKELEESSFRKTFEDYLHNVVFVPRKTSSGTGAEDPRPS
Insulin receptor (Homo sapiens), sequence (P06213 763-1382 limits assumed): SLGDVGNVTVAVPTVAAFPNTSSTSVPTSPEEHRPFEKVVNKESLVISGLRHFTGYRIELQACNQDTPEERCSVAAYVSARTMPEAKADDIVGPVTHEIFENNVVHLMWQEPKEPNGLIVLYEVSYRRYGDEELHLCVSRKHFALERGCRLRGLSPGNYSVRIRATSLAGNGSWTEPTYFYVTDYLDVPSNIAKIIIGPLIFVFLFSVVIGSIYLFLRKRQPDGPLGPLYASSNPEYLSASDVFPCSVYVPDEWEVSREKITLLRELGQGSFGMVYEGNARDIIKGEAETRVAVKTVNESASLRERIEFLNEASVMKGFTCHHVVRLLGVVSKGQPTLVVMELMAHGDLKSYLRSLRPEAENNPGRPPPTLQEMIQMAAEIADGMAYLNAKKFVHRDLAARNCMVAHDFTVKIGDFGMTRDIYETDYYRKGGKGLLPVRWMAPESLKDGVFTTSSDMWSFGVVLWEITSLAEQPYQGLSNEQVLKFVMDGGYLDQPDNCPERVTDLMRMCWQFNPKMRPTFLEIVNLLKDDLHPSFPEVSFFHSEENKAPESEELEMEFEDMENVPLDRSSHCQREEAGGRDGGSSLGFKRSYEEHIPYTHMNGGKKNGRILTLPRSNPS

[5] = molecular target: Sodium-dependent dopamine transporter (Homo sapiens) (UniProt Q01959); details: Compound concentration 10.0 uM
[6] = molecular target: GABA-A receptor; anion channel (Rattus norvegicus) (UniProt O09028+P15431+P18506+P18508+P19969+P20236+P23574+P23576+P28471+P28473+P30191+P62813+P63079+P63138+Q91ZM7+Q9ES14); details: Compound concentration 10.0 uM
[7] = molecular target: Receptor-type tyrosine-protein phosphatase C (Homo sapiens) (UniProt P08575); experiment: Inhibition of Protein Tyrosine Phosphatase, PTPRC (CD45) at 10 µM in the Eurofins-Panlabs enzyme assay (Eurofins_assay_190010); details: Compound concentration 10.0 uM
[8] = molecular target: Carbonic anhydrase 2 (Homo sapiens) (UniProt P00918); experiment: Inhibition of Carbonic Anhydrase II at compound concentration of 10.0 uM in the Eurofins-Panlabs enzyme assay (Eurofins_assay_112020); design: substrate with concentration; details: Compound concentration 10.0 uM
[9] = molecular target: Muscarinic acetylcholine receptor M3 (Homo sapiens) (UniProt P20309); details: Compound concentration 10.0 uM
[10] = molecular target: Receptor tyrosine-protein kinase erbB-2 (Homo sapiens) (UniProt P04626); experiment: Inhibition of Protein Tyrosine Kinase, ERBB2 (HER2) at 10 µM in the Eurofins-Panlabs enzyme assay (Eurofins_assay_174020); design: substrate with concentration; details: Compound concentration 10.0 uM
[11] = molecular target: T1, Muscarinic acetylcholine receptor M2 (Homo sapiens) (UniProt P08172); details: Compound concentration 10.0 uM
T1 sequence (whole entry): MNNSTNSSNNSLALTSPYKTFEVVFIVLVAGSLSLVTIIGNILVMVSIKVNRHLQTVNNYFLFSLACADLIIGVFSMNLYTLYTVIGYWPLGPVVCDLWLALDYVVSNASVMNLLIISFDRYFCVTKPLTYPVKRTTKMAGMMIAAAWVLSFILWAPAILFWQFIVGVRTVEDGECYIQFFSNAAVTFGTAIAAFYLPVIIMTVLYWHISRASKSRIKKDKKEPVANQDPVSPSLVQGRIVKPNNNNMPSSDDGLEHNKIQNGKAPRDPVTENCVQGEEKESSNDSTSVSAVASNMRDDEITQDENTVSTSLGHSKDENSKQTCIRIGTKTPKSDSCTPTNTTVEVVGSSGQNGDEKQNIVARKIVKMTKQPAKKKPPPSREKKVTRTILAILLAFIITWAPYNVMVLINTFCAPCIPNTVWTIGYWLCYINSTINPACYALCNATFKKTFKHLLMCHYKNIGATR

[12] = molecular target: Vasoactive intestinal polypeptide receptor 1 (Homo sapiens) (UniProt P32241); experiment: Inhibition of Vasoactive Intestinal Peptide VIP1 at 10 µM in the Eurofins-Panlabs radioligand binding assay (Eurofins_assay_287010); details: Compound concentration 10.0 uM
[13] = molecular target: Mitogen-activated protein kinase 1 (Homo sapiens) (UniProt P28482); experiment: Inhibition of Protein Serine/Threonine Kinase, MAPK1 (ERK2) at 10 µM in the Eurofins-Panlabs enzyme assay (Eurofins_assay_171120); design: substrate with concentration; details: Compound concentration 10.0 uM
[14] = molecular target: Interstitial collagenase (Homo sapiens) (UniProt P03956); experiment: Inhibition of Peptidase, Matrix Metalloproteinase-1 (MMP-1) at 10 µM in the Eurofins-Panlabs enzyme assay (Eurofins_assay_114110); details: Compound concentration 10.0 uM
Rattus norvegicus [15] = organism: Rattus norvegicus; experiment: Inhibition of Imidazoline I2, Central at 10 µM in the Eurofins-Panlabs radioligand binding assay (Eurofins_assay_241000); design: ligand concentration 2 nM; details: Compound concentration 10.0 uM
[16] = molecular target: Tyrosine-protein kinase Fyn (Homo sapiens) (UniProt P06241); experiment: Inhibition of Protein Tyrosine Kinase, Fyn at 10 µM in the Eurofins-Panlabs enzyme assay (Eurofins_assay_172020); design: substrate with concentration; details: Compound concentration 10.0 uM
Rattus norvegicus [17] = organism: Rattus norvegicus; experiment: Inhibition of Glycine, Strychnine-Sensitive at 10 µM in the Eurofins-Panlabs radioligand binding assay (Eurofins_assay_239000); details: Compound concentration 10.0 uM
[18] = molecular target: Sodium-dependent noradrenaline transporter (Homo sapiens) (UniProt P23975); details: Compound concentration 10.0 uM
Sodium-dependent noradrenaline transporter (Homo sapiens), sequence (P23975 whole entry): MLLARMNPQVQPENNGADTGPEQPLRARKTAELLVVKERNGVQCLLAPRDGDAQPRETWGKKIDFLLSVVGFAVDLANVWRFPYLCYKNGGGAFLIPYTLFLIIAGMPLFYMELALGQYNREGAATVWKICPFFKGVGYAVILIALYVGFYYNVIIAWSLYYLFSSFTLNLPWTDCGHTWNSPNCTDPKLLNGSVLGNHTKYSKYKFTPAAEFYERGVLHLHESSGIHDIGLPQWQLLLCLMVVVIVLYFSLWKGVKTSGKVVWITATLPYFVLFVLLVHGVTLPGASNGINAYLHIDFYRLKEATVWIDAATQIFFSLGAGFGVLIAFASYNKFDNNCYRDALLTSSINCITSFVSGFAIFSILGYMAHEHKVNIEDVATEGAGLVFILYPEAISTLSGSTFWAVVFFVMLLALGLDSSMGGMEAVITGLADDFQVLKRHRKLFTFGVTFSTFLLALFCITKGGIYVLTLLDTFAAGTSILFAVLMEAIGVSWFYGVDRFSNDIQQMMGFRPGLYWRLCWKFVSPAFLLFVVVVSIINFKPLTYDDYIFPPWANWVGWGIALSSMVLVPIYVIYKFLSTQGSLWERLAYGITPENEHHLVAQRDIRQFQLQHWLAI

[19] = molecular target: Substance-K receptor (Homo sapiens) (UniProt P21452); experiment: Inhibition of Tachykinin NK2 at 10 µM in the Eurofins-Panlabs radioligand binding assay (Eurofins_assay_255600); design: ligand concentration 0.5 nM; details: Compound concentration 10.0 uM
[20] = molecular target: C-C chemokine receptor type 5 (Homo sapiens) (UniProt P51681); experiment: Inhibition of Chemokine CCR5 at 10 µM in the Eurofins-Panlabs radioligand binding assay (Eurofins_assay_217720); details: Compound concentration 10.0 uM
C-C chemokine receptor type 5 (Homo sapiens), sequence (P51681 whole entry, looked up): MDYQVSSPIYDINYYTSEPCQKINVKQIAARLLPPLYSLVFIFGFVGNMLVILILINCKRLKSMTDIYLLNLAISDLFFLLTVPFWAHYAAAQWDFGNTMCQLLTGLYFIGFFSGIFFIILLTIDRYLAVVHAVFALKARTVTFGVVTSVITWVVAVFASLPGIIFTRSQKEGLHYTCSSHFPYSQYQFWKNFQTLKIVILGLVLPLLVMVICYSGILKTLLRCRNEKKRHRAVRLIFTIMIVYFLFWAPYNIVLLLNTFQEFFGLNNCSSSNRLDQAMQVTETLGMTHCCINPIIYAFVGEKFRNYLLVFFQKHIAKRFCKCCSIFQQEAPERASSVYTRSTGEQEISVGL

[21] = molecular target: Neuropeptide Y receptor type 1 (Homo sapiens) (UniProt P25929); experiment: Inhibition of Neuropeptide Y Y1 at 10 µM in the Eurofins-Panlabs radioligand binding assay (Eurofins_assay_257010); details: Compound concentration 10.0 uM
[22] = molecular target: Monoamine oxidase A (MAO-A) (Homo sapiens, UniProt P21397); experiment: Inhibition of Monoamine Oxidase MAO-A at compound concentration of 10.0 uM in the Eurofins-Panlabs enzyme assay (Eurofins_assay_140010); design: substrate with concentration 50 uM Kynuramine, incubation time 60 min, incubation temperature 37 C; details: recombinant human MAO-A expressed in insect Hi5 cells, probe Kynuramine, 50 uM, compound concentration 10 uM
[23] = molecular target: Glucocorticoid receptor (Homo sapiens) (UniProt P04150); details: Compound concentration 10.0 uM
CYP1A2 = CYP1A2 (Homo sapiens, UniProt P05177); experiment: CYP450, 1A2 Eurofins-Panlabs enzyme assay; details: compound concentration 10 uM
CYP1A2, sequence (P05177 whole entry): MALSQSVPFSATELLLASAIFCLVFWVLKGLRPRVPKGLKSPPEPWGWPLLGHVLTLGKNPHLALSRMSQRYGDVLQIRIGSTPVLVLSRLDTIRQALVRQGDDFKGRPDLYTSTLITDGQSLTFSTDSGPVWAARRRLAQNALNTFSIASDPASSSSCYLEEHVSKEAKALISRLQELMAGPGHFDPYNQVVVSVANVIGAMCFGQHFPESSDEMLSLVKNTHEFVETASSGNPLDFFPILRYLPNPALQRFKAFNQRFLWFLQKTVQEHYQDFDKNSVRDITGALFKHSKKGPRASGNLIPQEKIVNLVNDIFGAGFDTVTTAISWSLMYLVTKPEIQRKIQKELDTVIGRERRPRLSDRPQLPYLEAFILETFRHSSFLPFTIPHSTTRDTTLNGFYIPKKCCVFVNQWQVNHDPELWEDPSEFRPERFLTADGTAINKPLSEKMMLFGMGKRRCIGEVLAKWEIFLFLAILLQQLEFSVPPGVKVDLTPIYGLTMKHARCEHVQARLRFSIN

[24] = molecular target: Sigma non-opioid intracellular receptor 1 (Homo sapiens) (UniProt Q99720); experiment: Sigma 1 Eurofins-Panlabs radioligand binding assay; design: ligand concentration 8 nM; details: Compound concentration 10.0 uM
Sigma non-opioid intracellular receptor 1 (Homo sapiens), sequence (Q99720 whole entry): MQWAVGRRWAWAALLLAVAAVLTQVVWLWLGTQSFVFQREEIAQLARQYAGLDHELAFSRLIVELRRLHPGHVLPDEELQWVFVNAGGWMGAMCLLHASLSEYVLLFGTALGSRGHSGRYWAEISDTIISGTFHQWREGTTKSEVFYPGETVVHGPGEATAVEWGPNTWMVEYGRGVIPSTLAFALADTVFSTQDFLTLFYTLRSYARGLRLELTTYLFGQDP

[25] = molecular target: Prostaglandin G/H synthase 2 (Homo sapiens) (UniProt P35354); experiment: Inhibition of Cyclooxygenase COX-2 at compound concentration of 10.0 uM in the Eurofins-Panlabs enzyme assay (Eurofins_assay_118010); design: substrate with concentration 0.3 uM Arachidonic acid, incubation time 15 min, incubation temperature 37 C; details: Compound concentration 10.0 uM
Prostaglandin G/H synthase 2 (Homo sapiens), sequence (P35354 whole entry): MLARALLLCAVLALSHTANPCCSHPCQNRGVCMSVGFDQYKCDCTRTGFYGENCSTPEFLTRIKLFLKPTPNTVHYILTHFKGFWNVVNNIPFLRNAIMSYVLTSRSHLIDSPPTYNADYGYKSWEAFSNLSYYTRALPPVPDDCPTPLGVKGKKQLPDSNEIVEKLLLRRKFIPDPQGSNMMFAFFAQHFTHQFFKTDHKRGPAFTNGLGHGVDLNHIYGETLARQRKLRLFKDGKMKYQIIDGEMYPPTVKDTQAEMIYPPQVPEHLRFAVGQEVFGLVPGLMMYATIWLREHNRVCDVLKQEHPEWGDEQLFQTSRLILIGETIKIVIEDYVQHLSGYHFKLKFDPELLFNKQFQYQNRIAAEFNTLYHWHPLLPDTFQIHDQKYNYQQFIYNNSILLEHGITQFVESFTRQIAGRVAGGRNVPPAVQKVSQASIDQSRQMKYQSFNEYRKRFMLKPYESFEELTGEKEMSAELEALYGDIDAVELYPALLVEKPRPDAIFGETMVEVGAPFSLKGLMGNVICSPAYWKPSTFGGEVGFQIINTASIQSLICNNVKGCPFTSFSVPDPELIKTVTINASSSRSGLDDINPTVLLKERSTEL

[26] = molecular target: C-X-C chemokine receptor type 2 (Homo sapiens) (UniProt P25025); experiment: Inhibition of Chemokine CXCR2 (IL-8RB) at 10 µM in the Eurofins-Panlabs radioligand binding assay (Eurofins_assay_244500); details: Compound concentration 10.0 uM
C-X-C chemokine receptor type 2 (Homo sapiens), sequence (P25025 whole entry): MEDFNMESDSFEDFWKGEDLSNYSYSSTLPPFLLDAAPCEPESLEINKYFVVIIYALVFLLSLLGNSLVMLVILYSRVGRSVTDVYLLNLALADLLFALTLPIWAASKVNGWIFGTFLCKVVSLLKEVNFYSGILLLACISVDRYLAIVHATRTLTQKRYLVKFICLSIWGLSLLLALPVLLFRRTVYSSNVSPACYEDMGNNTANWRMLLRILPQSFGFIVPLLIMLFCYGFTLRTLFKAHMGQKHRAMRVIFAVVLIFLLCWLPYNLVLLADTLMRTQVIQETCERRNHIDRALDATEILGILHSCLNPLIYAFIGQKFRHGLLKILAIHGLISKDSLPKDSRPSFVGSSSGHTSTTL

[27] = molecular target: Gonadotropin-releasing hormone receptor (Homo sapiens, UniProt P30968); experiment: Mechanistic assay measuring cellular IP1; format: functional
Gonadotropin-releasing hormone receptor, sequence (P30968 whole entry): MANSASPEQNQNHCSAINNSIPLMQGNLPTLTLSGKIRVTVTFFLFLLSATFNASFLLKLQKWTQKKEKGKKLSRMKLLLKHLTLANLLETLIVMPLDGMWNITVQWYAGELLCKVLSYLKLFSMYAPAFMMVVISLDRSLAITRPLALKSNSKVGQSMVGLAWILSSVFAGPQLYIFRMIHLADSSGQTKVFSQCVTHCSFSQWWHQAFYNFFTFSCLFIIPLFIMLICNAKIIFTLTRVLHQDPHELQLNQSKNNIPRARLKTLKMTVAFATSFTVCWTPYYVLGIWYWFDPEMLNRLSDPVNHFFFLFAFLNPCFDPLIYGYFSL

O=C(NCc1ncc(C(F)(F)F)cc1Cl)c1ccc2c(c1)C1(CCS(=O)(=O)CC1)[C@H](C1CC1)N2S(=O)(=O)c1ccc(F)cc1 [BAY-784]
inhibition (Mus musculus): 1%
inhibition (Bacteria): 4%
inhibition [1]: 14%
inhibition [2]: 10%
inhibition [3]: 56%
inhibition [4]: -1%
inhibition [5]: 25%
inhibition [6]: -9.68%
inhibition [7]: -5%
inhibition [8]: -5%
inhibition [9]: 1%
inhibition [10]: 6%
inhibition [11]: -3%
inhibition [12]: 2%
inhibition [13]: 53%
inhibition [14]: -4%
inhibition (Rattus norvegicus [15]): 10%
inhibition [16]: 5%
inhibition (Rattus norvegicus [17]): 4%
inhibition [18]: 14%
inhibition [19]: 7%
inhibition [20]: -1%
inhibition [21]: 17%
inhibition at 60 min, 10 µM [22]: 3% (not active)
inhibition [23]: 13%
inhibition at 10 µM (CYP1A2): -2% (not active)
inhibition [24]: 15%
inhibition [25]: 4%
inhibition [26]: 14%

O=C(NCc1ncc(C(F)(F)F)cc1Cl)c1ccc2c(c1)C1(CCS(=O)(=O)CC1)[C@@H](C1CC1)N2S(=O)(=O)c1ccc(F)cc1 [BAY-786]
IC50 [27]: 2.4 µM (not active)
